PubChem BioAssay AID328 (DTP/NCI, 2004)
Several values for one entry are separate records, joined by “and”; a condition that tells them apart may be missing. Equal entries are not always repeated. Toxic doses and inconclusive results are not listed. Residues, ends and D or L forms follow the SMILES beside them. *: point of attachment. Cbz = O=C(OCc1ccccc1)*; Bn = c1ccc(C*)cc1

Test system: BDF1 mice, P388 leukemia ip, median survival T/C
Assay: NCI In Vivo Anticancer Drug Screen. Data for tumor model P388 Leukemia (intraperitoneal) in B6D2F1 (BDF1) mice
Details: endpoint: median survival time, higher = longer survival
Summary of the method: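 Transplantable tumour in mice; compound vs vehicle dosing; survival scored; ratio of treated to control reported.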

[1] = dose: 50.0 mg/kg/injection, schedule: Q01DX009 (ip), vehicle: Klucel (hydroxypropylcellulose) (HPC)
[2] = dose: 100.0 mg/kg/injection, schedule: Q01DX009 (ip), vehicle: Klucel (hydroxypropylcellulose) (HPC)
[3] = dose: 100.0 mg/kg/injection, schedule: Q04DX003 (ip), vehicle: Klucel (hydroxypropylcellulose) (HPC)
[4] = dose: 200.0 mg/kg/injection, schedule: Q04DX003 (ip), vehicle: Klucel (hydroxypropylcellulose) (HPC)
[5] = dose: 400.0 mg/kg/injection, schedule: Q04DX003 (ip), vehicle: Klucel (hydroxypropylcellulose) (HPC)
[6] = dose: 100.0 mg/kg/injection, schedule: Q01DX009 (ip), vehicle: saline with Tween-80
[7] = dose: 200.0 mg/kg/injection, schedule: Q01DX009 (ip), vehicle: Klucel (hydroxypropylcellulose) (HPC)
[8] = dose: 50.0 mg/kg/injection, schedule: Q01DX009 (ip), vehicle: saline with Tween-80
[9] = dose: 200.0 mg/kg/injection, schedule: Q01DX009 (ip), vehicle: saline with Tween-80

`O=C(O)c1cc(-c2ccc(Cl)cc2)nc2c(Cl)cccc12` was tested, and the T/C [1] was 100 % of control, the T/C (dose: 50.0 mg/kg/injection, schedule: Q04DX003 (ip), vehicle: Klucel (hydroxypropylcellulose) (HPC)) was 91 % of control and the T/C [2] was 100 % of control. For the same compound, the T/C [3] was 86 % of control and the T/C [4] was 86 % of control.
With `CC(C)CC(NC(=O)C1CCCN1C(=O)C(CSCc1ccccc1)NC(=O)OCc1ccccc1)C(=O)NCC(N)=O` (configuration not stated) (Cbz-C(Bn)PLG-NH2; configuration not given here) the T/C [3] was 99 % of control, the T/C [4] was 95 % of control and the T/C [5] was 87 % of control.
`COc1ccc2nc3c(Cl)c(Cl)c(=O)c(Cl)c-3sc2c1` was tested, and the T/C (dose: 12.5 mg/kg/injection, schedule: Q01DX005 (ip), vehicle: saline with Tween-80) was 102 % of control and the T/C (dose: 25.0 mg/kg/injection, schedule: Q01DX005 (ip), vehicle: saline with Tween-80) was 88 % of control.
For `CC1(C)N=C(N)N=C(N)N1c1ccc(CCc2ccc(S(=O)(=O)F)cc2)c(Cl)c1`, the T/C (dose: 33.0 mg/kg/injection, schedule: Q04DX003 (ip), vehicle: saline sonified) was 122 % of control and the T/C [6] was 159 % of control.
In the case of `C/C(=N\N=C(N)N)c1ccc(NC(=O)Nc2ccc(/C(C)=N/N=C(N)N)cc2)cc1`, the T/C (dose: 1.5 mg/kg/injection, schedule: Q04DX003 (ip), vehicle: saline) is reported as 115 % of control, the T/C (dose: 5.4 mg/kg/injection, schedule: Q04DX003 (ip), vehicle: saline) is reported as 150 % of control and the T/C (dose: 44.0 mg/kg/injection, schedule: Q04DX003 (ip), vehicle: saline) is reported as 163 % of control. The T/C (dose: 66.0 mg/kg/injection, schedule: Q04DX003 (ip), vehicle: saline) was 118 % of control, the T/C (dose: 100.0 mg/kg/injection, schedule: Q04DX003 (ip), vehicle: saline) was 154 % of control and the T/C (dose: 200.0 mg/kg/injection, schedule: Q04DX003 (ip), vehicle: saline) was 179 % of control. The T/C (dose: 264.0 mg/kg/injection, schedule: Q04DX003 (ip), vehicle: saline) was 180 % of control and 222 % of control and the T/C (dose: 400.0 mg/kg/injection, schedule: Q04DX003 (ip), vehicle: saline) was 236 % of control and 241 % of control and 190 % of control.
In the case of `Cc1nnc2c(=O)[nH]ccn12`, the T/C (dose: 100.0 mg/kg/injection, schedule: Q01DX001 (ip), vehicle: saline with Tween-80) is reported as 106 % of control, the T/C (dose: 200.0 mg/kg/injection, schedule: Q01DX001 (ip), vehicle: saline with Tween-80) is reported as 100 % of control and the T/C (dose: 400.0 mg/kg/injection, schedule: Q01DX001 (ip), vehicle: saline with Tween-80) is reported as 103 % of control.
For `CC(C)([NH-])CO.CC(C)([NH-])CO.[Cl][Cd][Cl]`, the T/C (dose: 5.0 mg/kg/injection, schedule: Q01DX009 (ip), vehicle: saline) was 120 % of control, the T/C (dose: 6.25 mg/kg/injection, schedule: Q04DX003 (ip), vehicle: saline sonified) was 104 % of control and the T/C (dose: 10.0 mg/kg/injection, schedule: Q01DX009 (ip), vehicle: saline) was 120 % of control. The T/C (dose: 10.0 mg/kg/injection, schedule: Q04DX003 (ip), vehicle: saline) was 109 % of control, the T/C (dose: 12.5 mg/kg/injection, schedule: Q04DX003 (ip), vehicle: saline sonified) was 108 % of control and the T/C (dose: 20.0 mg/kg/injection, schedule: Q04DX003 (ip), vehicle: saline) was 95 % of control.
`Cc1ccc(S(=O)(=O)NCN2C(=O)c3ccccc3C2=O)cc1` was tested, and the T/C (dose: 12.5 mg/kg/injection, schedule: Q01DX009 (ip), vehicle: Klucel (hydroxypropylcellulose) (HPC)) was 100 % of control, the T/C (dose: 25.0 mg/kg/injection, schedule: Q01DX009 (ip), vehicle: Klucel (hydroxypropylcellulose) (HPC)) was 100 % of control and the T/C (dose: 25.0 mg/kg/injection, schedule: Q01DX009 (ip), vehicle: saline with Tween-80) was 86 % of control. The T/C [1] was 105 % of control and the T/C (dose: 100.0 mg/kg/injection, schedule: Q01DX009 (ip), vehicle: saline) was 91 % of control.
With `Cc1cc2nc(C)c(=O)[nH]c2cc1C` the T/C [2] was 100 % of control, the T/C [3] was 95 % of control and the T/C [7] was 95 % of control. The T/C [4] was 95 % of control and the T/C [5] was 95 % of control.
With `Cc1ccc(Oc2ccc3cc[n+](C)cc3c2)cc1` the T/C (dose: 2.75 mg/kg/injection, schedule: Q01DX009 (ip), vehicle: saline) was 94 % of control, the T/C (dose: 4.12 mg/kg/injection, schedule: Q01DX009 (ip), vehicle: saline) was 105 % of control and the T/C (dose: 9.5 mg/kg/injection, schedule: Q01DX009 (ip), vehicle: saline) was 99 % of control. For the same compound, the T/C (dose: 12.5 mg/kg/injection, schedule: Q01DX009 (ip), vehicle: saline) was 118 % of control.
In the case of `CCn1c(Cl)c(/C=N/Nc2ccc([N+](=O)[O-])cc2[N+](=O)[O-])c2ccccc21`, the T/C (dose: 100.0 mg/kg/injection, schedule: Q04DX002 (ip), vehicle: Klucel (hydroxypropylcellulose) (HPC)) is reported as 92 % of control, the T/C (dose: 200.0 mg/kg/injection, schedule: Q04DX002 (ip), vehicle: Klucel (hydroxypropylcellulose) (HPC)) is reported as 92 % of control and the T/C (dose: 400.0 mg/kg/injection, schedule: Q04DX002 (ip), vehicle: Klucel (hydroxypropylcellulose) (HPC)) is reported as 88 % of control.
With `CN=Cc1ccc([N+](=O)[O-])cc1` the T/C (dose: 100.0 mg/kg/injection, schedule: Q01DX001 (ip), vehicle: Klucel (hydroxypropylcellulose) (HPC)) was 113 % of control and the T/C (dose: 200.0 mg/kg/injection, schedule: Q01DX001 (ip), vehicle: Klucel (hydroxypropylcellulose) (HPC)) was 104 % of control.
For `COc1cc([C@@H]2c3cc4c(c(O)c3C[C@H]3COC(=O)[C@@H]32)OCO4)cc(OC)c1O`, the T/C (dose: 0.12 mg/kg/injection, schedule: Q01DX010 (ip), vehicle: carboxymethylcellulose (CMC)) was 105 % of control, the T/C (dose: 0.25 mg/kg/injection, schedule: Q01DX010 (ip), vehicle: carboxymethylcellulose (CMC)) was 100 % of control and the T/C (dose: 0.5 mg/kg/injection, schedule: Q01DX001 (ip), vehicle: other) was 121 % of control. The T/C (dose: 0.5 mg/kg/injection, schedule: Q01DX010 (ip), vehicle: other) was 118 % of control, the T/C (dose: 1.0 mg/kg/injection, schedule: Q01DX010 (ip), vehicle: carboxymethylcellulose (CMC)) was 100 % of control and 123 % of control and the T/C (dose: 30.0 micrograms/kg/injection, schedule: Q01DX010 (ip), vehicle: other) was 110 % of control. For the same compound, the T/C (dose: 60.0 micrograms/kg/injection, schedule: Q01DX010 (ip), vehicle: other) was 110 % of control.
With `Cc1ccc(NC(=O)Oc2ccc(Br)cc2Br)c([N+](=O)[O-])c1` the T/C [6] was 122 % of control.
In the case of `N#CCCN(CCC#N)/N=N\c1nc[nH]c1C(N)=O`, the T/C [8] is reported as 101 % of control, the T/C [6] is reported as 105 % of control and the T/C [9] is reported as 113 % of control. For the same compound, the T/C (dose: 400.0 mg/kg/injection, schedule: Q01DX009 (ip), vehicle: saline with Tween-80) was 113 % of control.
`CCCc1cc(CCC)n2nc(N)nc2n1` was tested, and the T/C [8] was 109 % of control and the T/C [6] was 100 % of control.
With `COc1ccc2[nH]c3c(c2c1)CCNC3CC(C)CCC=C(C)C` (configuration not stated) the T/C [8] was 93 % of control and the T/C [6] was 113 % of control.
With `CCOC(=O)C(COS(=O)(=O)c1ccc(C)cc1)(COS(=O)(=O)c1ccc(C)cc1)C(=O)OCC` the T/C [2] was 108 % of control, the T/C [3] was 100 % of control and the T/C [7] was 104 % of control. The T/C [4] was 104 % of control, the T/C (dose: 400.0 mg/kg/injection, schedule: Q01DX009 (ip), vehicle: Klucel (hydroxypropylcellulose) (HPC)) was 100 % of control and the T/C [5] was 100 % of control.
In the case of `COC(=O)C1=C(C(=O)OC)C2C=CC1C1CC(OC(C)=O)C21` (configuration not stated), the T/C [8] is reported as 113 % of control, the T/C [6] is reported as 113 % of control and the T/C [9] is reported as 101 % of control.
`CCCNC(=O)Oc1c(C(C)C)ccc(C)c1Cl` was tested, and the T/C (dose: 100.0 mg/kg/injection, schedule: Q04DX003 (ip), vehicle: saline with Tween-80) was 100 % of control, the T/C (dose: 200.0 mg/kg/injection, schedule: Q04DX003 (ip), vehicle: saline with Tween-80) was 90 % of control and the T/C (dose: 400.0 mg/kg/injection, schedule: Q04DX003 (ip), vehicle: saline with Tween-80) was 104 % of control.
With `CCC1OC(=O)CC(O)C(C)C(OC2OC(C)C(O)C(N(C)C)C2O)C(CC=O)CC(C)C(=O)/C=C/C2(C)OC2C1C` (configuration not stated) the T/C (dose: 150.0 mg/kg/injection, schedule: Q01DX009 (ip), vehicle: Klucel (hydroxypropylcellulose) (HPC)) was 92 % of control.
